Measurements: publication PMC8062851, “2-Methoxyestradiol and its derivatives inhibit store-operated Ca^2+ entry in T cells: Identification of a new and potent inhibitor” (Biochimica et Biophysica Acta. Molecular Cell Research, 2021)
“Also recorded” adds a separate entry of the source. Read-outs that look alike come from different tables or passages of the source.

Columns and labels:
[1] = system: SOCE in Jurkat T cells; test: Inhibition during activated SOCE (thapsigargin or anti-CD3 OKT3, 1 mM extracellular Ca2+) in Jurkat T cells; type: cell-based, human; conditions: for IC50: Homo sapiens, Jurkat, 1 mM extracellular Ca2+
Procedure: Jurkat T-lymphocytes, primary human CD4^+ T cells and H1299 cells were pelleted at 450 ×g for 5 min, rat TMBP at 300 ×g for 8 min at room temperature and were resuspended in 1 ml of either standard JMP medium (Jurkat, H1299 and human CD4^+ T cells) or standard DMEM based medium containing 10% fetal bovine serum (FBS) (v/v) (TMBP cells). Resting TMBP cells (day 5–7 after re-stimulation) after the second to fifth re-stimulation were thawed from liquid nitrogen 12 to 40 h prior to Fura2-loading. After pre-incubation for 5 min at 37 °C, cells were incubated with 4 μM Fura2-AM for 15 min at 37 °C. After addition of the dye, cells were kept in the dark. Afterwards, cells and the dye were diluted by addition of 4 ml standard medium and incubated for another 15 min. Cells were washed twice in Ca^2+ buffer (140 mM NaCl, 5 mM KCl, 1 mM MgSO4, 1 mM CaCl2, 1 mM NaH2PO4, 20 mM HEPES, 5.5 mM glucose; pH 7.4 (NaOH), sterile filtered) and were diluted to a concentration of 2*10^6 cells/ml. Subsequently, cells were kept at room temperature for 20 min for de-esterification before the start of the first measurement.
10^6 Jurkat T-lymphocytes, H1299 cells, TMBP cells or 4*10^6 primary human CD4^+ T cells were added into a 10 × 10 mm quartz glass cuvette (Hellma Analytics, Germany) that was placed into a fluorescence spectrophotometer (F-2710, Hitachi, Japan). In experiments using a Ca^2+ free/Ca^2+ re-addition protocol, cells were pelleted as described for Fura2 loading and Ca^2+ buffer was exchanged by 1 ml nominal Ca^2+ free buffer (140 mM NaCl, 5 mM KCl, 1 mM MgSO4, 1 mM NaH2PO4, 20 mM HEPES, 5.5 mM glucose; pH 7.4 (NaOH), sterile filtered) immediately before starting the measurement. The measurement was controlled by FL Solutions (Version 4.1, Hitachi High-Technologies Corporation). Fura2 was alternatively excited every 2 s at 340 ± 5 nm and 380 ± 5 nm, each 400 ms apart. Fluorescence intensity was measured at an emission wavelength of 495 ± 5 nm for both excitation wavelengths.
Finally, every measurement was calibrated using 0.1% (v/v) Triton X-100 to obtain a maximal ratio and 4 mM EGTA and 30 mM Tris to obtain a minimal ratio. […]
Besides the Ca^2+ free/Ca^2+ re-addition protocol, we also characterized the effect of STX564 in cells during activated SOCE in the presence of thapsigargin (TG, Fig. 2A,B) or upon stimulation via their TCR/CD3 complex (Fig. 2C). […]. […] Similarly, in Fig. 2C this effect of a partial or full recovery of SOCE was also observed, a few minutes after STX564 addition.

[2] = system: SERCA pumps; test: SERCA activity (ATP-induced Ca2+ reuptake) in permeabilized Jurkat T cells; type: cell-based, human
Procedure: 3 ∗ 10^7 Jurkat T-lymphocytes per measurement were centrifuged at 450 ×g for 5 min at room temperature. The pellet was rinsed twice, each time using 10 ml permeabilization buffer 1 (120 mM KCl, 10 mM NaCl, 1.2 mM MgCl2, 0.533 mM CaCl2, 1 mM EGTA and 10 mM HEPES, pH 7.2 (KOH), sterile filtered). Subsequently, the pellet was resuspended in 2 ml permeabilization buffer 1 containing 80 μg/ml saponin (Fluka) and the cells were incubated for 10 min at 37 °C. Subsequently, the cells were centrifuged at 450 ×g for 5 min at room temperature and the cell pellet was washed once in 10 ml permeabilization buffer 2 (120 mM KCl, 10 mM NaCl, 1.2 mM MgCl2 and 10 mM HEPES, pH 7.2 (KOH), sterile filtered). Finally, the cells were taken up in 1 ml permeabilization buffer 2, placed into a cuvette and measured at the fluorescence spectrophotometer. Before the start of the measurement, 0.5 μl of 1 mM Fura2 free acid (dissolved in pure water, final concentration: 0.5 μM), 5 μl of 5 mg/ml creatinkinase (dissolved in permeabilization buffer 2, final concentration: 25 μg/ml, 20 U/ml, Roche) and 10 μl of 2 M creatin phosphate (dissolved in permeabilization buffer 2, final concentration: 20 mM, Calbiochem) were added. Fura2 was used to measure the Ca^2+ concentration and creatinkinase and creatin phosphate were used as ATP-regenerating system. The measurement was controlled by FL Solutions (Version 4.1, Hitachi High-Technologies Corporation). Fura2 was alternatively excited every 2 s at 340 ± 5 nm and 380 ± 5 nm, each 400 ms apart. Fluorescence intensity was measured at an emission wavelength of 495 ± 5 nm for both excitation wavelengths. […] Ca^2+ concentrations were calculated according to Grynkiewicz et al. as described earlier in Section 2.4.
As a quantitative read-out for inhibition of IP3 receptors, the peak [Ca^2+] after IP3 addition was subtracted from the mean [Ca^2+] between 25 and 75 s before IP3 addition (dPeak). […] The rate constant K of the fitted data was used as a quantitative read-out for SERCA pump activity and its inhibition.

[3] = system: SOCE in H1299 cells; test: SOCE inhibition, Ca2+ free/Ca2+ re-addition protocol in H1299 cells; type: cell-based, human; conditions: 10 μM
Procedure: Jurkat T-lymphocytes were cultured in RPMI 1640 medium containing 25 mM HEPES and GlutaMAX-1 (Gibco, Life Technologies), supplemented with 7.5% (v/v) newborn calf serum (NCS) (Biochrom, Merck Millipore), 100 U/ml penicillin and streptomycin (standard JMP medium). Cell density was kept between 0.3 and 1.2 ∗ 10^6 cells/ml. H1299 cells were cultured in DMEM (Dulbecco's modified Eagle's medium; Gibco, Life Technologies) supplemented with 10% (v/v) (FCS) (Biochrom, Merck Millipore), 4 mM L-glutamine, 100 μg/ml streptomycin, and 100 units/ml penicillin.
Jurkat T-lymphocytes, primary human CD4^+ T cells and H1299 cells were pelleted at 450 ×g for 5 min, rat TMBP at 300 ×g for 8 min at room temperature and were resuspended in 1 ml of either standard JMP medium (Jurkat, H1299 and human CD4^+ T cells) or standard DMEM based medium containing 10% fetal bovine serum (FBS) (v/v) (TMBP cells). […]
10^6 Jurkat T-lymphocytes, H1299 cells, TMBP cells or 4*10^6 primary human CD4^+ T cells were added into a 10 × 10 mm quartz glass cuvette (Hellma Analytics, Germany) that was placed into a fluorescence spectrophotometer (F-2710, Hitachi, Japan). […] Fluorescence intensity was measured at an emission wavelength of 495 ± 5 nm for both excitation wavelengths.

[4] = molecular target: T1, KV channels (Homo sapiens, UniProt P22001); test: Whole-cell patch clamp of KV channels in Jurkat T cells; type: cell-based; conditions: STX564 at 10 μM
T1 construct: About 10^5 Jurkat T-lymphocytes were placed into this recording chamber; endogenous in cells; host or cells: Jurkat T-lymphocytes (whole-cell patch clamp)
T1 sequence (P22001 whole entry): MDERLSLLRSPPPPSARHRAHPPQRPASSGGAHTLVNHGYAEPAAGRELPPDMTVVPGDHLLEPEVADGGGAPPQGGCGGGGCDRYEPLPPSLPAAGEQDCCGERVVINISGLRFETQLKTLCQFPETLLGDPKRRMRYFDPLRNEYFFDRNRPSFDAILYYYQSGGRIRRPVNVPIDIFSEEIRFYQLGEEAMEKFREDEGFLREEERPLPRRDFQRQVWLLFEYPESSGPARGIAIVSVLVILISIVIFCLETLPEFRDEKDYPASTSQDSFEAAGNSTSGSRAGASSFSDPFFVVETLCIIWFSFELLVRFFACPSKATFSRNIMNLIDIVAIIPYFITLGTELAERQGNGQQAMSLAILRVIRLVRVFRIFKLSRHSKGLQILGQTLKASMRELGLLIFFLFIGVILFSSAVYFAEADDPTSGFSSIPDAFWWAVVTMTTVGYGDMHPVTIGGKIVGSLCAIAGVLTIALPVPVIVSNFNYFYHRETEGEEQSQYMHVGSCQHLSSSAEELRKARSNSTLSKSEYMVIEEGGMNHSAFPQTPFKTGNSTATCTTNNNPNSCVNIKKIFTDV

CCc1cc2c(cc1OS(N)(=O)=O)CC[C@@H]1[C@@H]2CC[C@]2(C)[C@@H](CC#N)CC[C@@H]12 [STX564, 2-ethyl-3-sulfamoyloxy-17β-cyanomethylestra-1,3,5(10)-triene]
IC50 ([1]; read-out: IC50 of SOCE inhibition during active SOCE, Jurkat T cells stimulated by 1 μM thapsigargin (TG)): 3000 nM
IC50 ([1]; read-out: IC50 of SOCE inhibition during active SOCE, Jurkat T cells stimulated by 1 μg/ml αCD3 (OKT3)): 2000 nM
extent of inhibition when added during activated SOCE ([1]; Jurkat T cells, TG or TCR/CD3 stimulation): only partial inhibition
effect on SERCA activity (initial slope of [Ca2+] upon ATP addition) [2]: Neither STX564, Synta66 nor vehicle DMSO affected ATP-induced Ca^2+ reuptake by SERCA pumps; also recorded: neither STX564 nor Synta66 showed any effect
SOCE inhibition [3]: significantly inhibited
effect on KV channel currents [4]: does not inhibit KV channels; also recorded: no inhibition; also recorded: does not inhibit the KV1.3 channel
